B1: ΔhMAO B (protein)
chain: MSNKCDVVVVGGGISGMAAAKLLHDSGLNVVVLEARDRVGGRTYTLRNQKVKYVDLGGSYVGPTQNRILRLAKELGLETYKVNEVERLIHHVKGKSYPFRGPFPPVWNPITYLDHNNFWRTMDDMGREIPSDAPWKAPLAEEWDNMTMKELLDKLCWTESAKQLATLFVNLCVTAETHEVSALWFLWYVKQCGGTTRIISTTNGGQERKFVGGSGQVSERIMDLLGDRVKLERPVIYIDQTRENVLVETLNHEMYEAKYVISAIPPTLGMKIHFNPPLPMMRNQMITRVPLGSVIKCIVYYKEPFWRKKDYCGTMIIDGEEAPVAYTLDDTKPEGNYAAIMGFILAHKARKLARLTKEERLKKLCELYAKVLGSLEALEPVHYEEKNWCEEQYSGGCYTTYFPPGILTQYGRVLRQPVDRIYFAGTETATHWSGYMEGAVEAGERAAREILHAMGKIPEDEI
B2: hMAO B: the complete human monoamine oxidase B, SEQ ID NO: 1, control (protein, listed as Homo sapiens)
chain: MSNKCDVVVVGGGISGMAAAKLLHDSGLNVVVLEARDRVGGRTYTLRNQKVKYVDLGGSYVGPTQNRILRLAKELGLETYKVNEVERLIHHVKGKSYPFRGPFPPVWNPITYLDHNNFWRTMDDMGREIPSDAPWKAPLAEEWDNMTMKELLDKLCWTESAKQLATLFVNLCVTAETHEVSALWFLWYVKQCGGTTRIISTTNGGQERKFVGGSGQVSERIMDLLGDRVKLERPVIYIDQTRENVLVETLNHEMYEAKYVISAIPPTLGMKIHFNPPLPMMRNQMITRVPLGSVIKCIVYYKEPFWRKKDYCGTMIIDGEEAPVAYTLDDTKPEGNYAAIMGFILAHKARKLARLTKEERLKKLCELYAKVLGSLEALEPVHYEEKNWCEEQYSGGCYTTYFPPGILTQYGRVLRQPVDRIYFAGTETATHWSGYMEGAVEAGERAAREILHAMGKIPEDEIWQSEPESVDVPAQPITTTFLERHLPSVPGLLRLIGLTTIFSATALGFLAHKRGLLVRV
modifications: mat_peptide (1)..(520)

Key:
[1] = target: T1, hMAO B-GFP fusion protein (medium form of dopamine probe) in PC12 cells (Homo sapiens, UniProt P27338); assay: MAO substrates MPTP and L-DOPA added to cells expressing dopamine probe elicit GFP fluorescence; format: cell-based; details: for GFP fluorescence after drug treatment: PC12 cells expressing medium form of dopamine probe; for green fluorescence (release from shield effect) after treatment: preliminary experiment, excitation of 488 nm laser, a part of the cells
T1 construct: expressed in transfected cells
Text: Additions of MAO Substrates 1-methyl-4-phenyl-1,2,3,6-tetrahydropyridine (MPTP) and L-DOPA in Cells Expressing Dopamine Probe Elicit GFP Fluorescence
MPTP is a widely used compound as an MAO substrate. It is also used for measuring the enzyme activity of the MAO protein. The L-DOPA is a stable dopamine precursor and has been extensively used for the treatment of Parkinson's disease. After entering the cell, it could be converted into dopamine by the dopa decarboxylase. Both of the drugs could bind to dopamine transporter and be transported into the PC12 cells.

PC12 cell line = assay: GFP fluorescent signal of dopamine probes and controls in PC12 stable cell lines, confocal microscopy; format: cell-based, rat; details: excited by 488 nm laser, no substrate
Text: The rat pheochromocytoma cells (PC12 cell) were transfected with sequences of GFP, ΔhMAO B, and the probe protein through vector containing internal ribosome entry site (IRES). After antibiotic selection for more than a month, cell lines consistently expressing dopamine probe proteins were successfully established. The cell lines were detected by GFP antibody in Western blotting and observed by confocal microscopy.

E. coli strain BL21 = assay: GFP fluorescent signal of dopamine probes and controls in living E. coli BL21, confocal microscopy; format: cell-based; details: living E. coli BL21 after IPTG induction, excited by 488 nm laser, no substrate
[2] = differentiated PC12 cell line (NGF)
[3] = undifferentiated PC12 cell line

Row | Molecule | green fluorescence (release from shield effect) after treatment [1] | GFP fluorescent signal (PC12 cell line; [2]) | GFP fluorescent signal (PC12 cell line; [3]) | GFP fluorescent signal (E. coli strain BL21) | also measured
1 | CN1CC=C(c2ccccc2)CC1 [MPTP, 1-methyl-4-phenyl-1,2,3,6-tetrahydropyridine] | green fluorescence in those cells was successfully emitted |  |  |  | GFP fluorescence after drug treatment ([1]; 1 mM MPTP): strong GFP fluorescence
2 | GFP: full-length green fluorescent protein, SEQ ID NO: 2, control [reference compound] |  | clear fluorescent signals | clear fluorescent signals | Evident expression of green fluorescent signal | GFP fluorescent signal (E. coli strain BL21; listed as full length GFP): clear fluorescent signals
3 | N[C@@H](Cc1ccc(O)c(O)c1)C(=O)O [L-DOPA] | green fluorescence in those cells was successfully emitted |  |  |  | GFP fluorescence after drug treatment ([1]; 100 μM L-dopa): strong GFP fluorescence
4 | B1 |  | no signal | no signal | no fluorescent signal | 
5 | B2 |  |  |  | no fluorescent signal | 
